Laboratory results published in patent US10562909B2, “Fused quadracyclic compounds, compositions and uses thereof” (Tabomedex Biosciences, LLC, priority 2016, dated 2020).

Molecular target: MAPKAPK2 (Homo sapiens, UniProt P49137)
Assay: MK2 Enzymatic Assay
Assay type: biochemical
Conditions: 0.5 nM MAPKAPK2, 3 μM ATP, 2 μM Ser/Thr4 peptide, 23° C., values given as concentration bins
How it was run: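 MAPKAPK2 (2× stock 1 nM) and peptide substrate (2× 4 μM) were preincubated 20 min, then started with ATP (2× stock 6 μM) for 120 min. After 120 min development, coumarin/fluorescein emission ratio gave percent phosphorylation against 0% and 100% phosphopeptide controls.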

Chain of MAPKAPK2 (P49137 whole entry, species assumed): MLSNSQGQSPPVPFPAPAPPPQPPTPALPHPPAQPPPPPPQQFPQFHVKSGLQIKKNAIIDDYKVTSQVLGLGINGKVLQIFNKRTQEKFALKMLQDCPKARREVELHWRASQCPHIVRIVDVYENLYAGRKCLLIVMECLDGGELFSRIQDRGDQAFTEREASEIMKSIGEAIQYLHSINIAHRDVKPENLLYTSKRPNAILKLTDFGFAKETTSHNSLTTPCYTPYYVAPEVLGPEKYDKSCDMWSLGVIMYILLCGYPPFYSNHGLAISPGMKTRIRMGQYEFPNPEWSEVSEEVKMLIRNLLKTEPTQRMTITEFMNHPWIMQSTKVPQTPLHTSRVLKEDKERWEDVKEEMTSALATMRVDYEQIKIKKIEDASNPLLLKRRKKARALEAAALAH

| IC50 | SMILES |
| --- | --- |
| < 50 nM | CN1CC2(CCN(c3ccc4c(c3)Cn3cc(-c5ccc(F)cc5)cc3-c3nccn3-4)C2)C1 [Compound 344, 12-(4-fluorophenyl)-7-(2-methyl-2,6-diazaspiro[3.4]octan-6-yl)-9H-benzo[e]imidazo[2,1-c] pyrrolo[1,2-a][1,4]diazepine] |
| < 50 nM | C[C@H](CO)NC[C@H]1CCN(c2ccc3c(c2)Cn2cc(-c4ccc(C#N)cc4)cc2-c2nccn2-3)C1 [Compound 136, 4-(7-((R)-3-((((R)-1-hydroxypropan-2-yl)amino)methyl)pyrrolidin-1-yl)-9H-benzo[e]imidazo[2,1-c]pyrrolo[1,2-a][1,4]diazepin-12-yl)benzonitrile] |
| 100 to 200 nM | CN(C)C[C@@H]1CCN(c2cc3c(cn2)-n2cnnc2-c2cc(-c4ccc(C#N)cc4)cn2C3)C1 [Compound 317, (S)-4-(7-(3-((dimethylamino)methyl)pyrrolidin-1-yl)-9H-pyrido[3,4-e]pyrrolo[1,2-a][1,2,4]triazolo[3,4-c][1,4]diazepin-12-yl)benzonitrile] |
| < 50 nM | O[C@@H]1CN(c2ccc3c(c2)Cn2cc(-c4ccc(F)cc4)cc2-c2nccn2-3)C[C@H]1CN1CCCC1 (relative stereo) [Compound 472, (Trans)-1-(12-(4-fluorophenyl)-9H-benzo[e]imidazo[2,1-c]pyrrolo[1,2-a][1,4]diazepin-7-yl)-4-(pyrrolidin-1-ylmethyl)pyrrolidin-3-ol] |
| < 50 nM | N#Cc1ccc(-c2cc3n(c2)Cc2cc(N4CC[C@H]5NCC[C@@H]54)ncc2-n2cnnc2-3)cc1 (racemic) [Compound 314, 4-(7-(trans-hexahydropyrrolo[3,2-b]pyrrol-1(2H)-yl)-9H-pyrido[3,4-e]pyrrolo[1,2-a][1,2,4]triazolo[3,4-c][1,4]diazepin-12-yl)benzonitrile] |
| < 50 nM | Fc1ccc(-c2cc3n(c2)Cc2cc(N4CCC5(CNC5)C4)ccc2-n2ccnc2-3)cc1 [Compound 376, 12-(4-fluorophenyl)-7-(2,6-diazaspiro[3.4]octan-6-yl)-9H-benzo[e]imidazo[2,1-c]pyrrolo[1,2-a][1,4]diazepine] |
| 50 to 100 nM | N#Cc1ccc(-c2cc3n(c2)Cc2cc(N4CC5(CCNC5)C4)ccc2-n2ncnc2-3)cc1 [Compound 258, 4-(7-(2,6-diazaspiro[3.4]octan-2-yl)-9H-benzo[e]pyrrolo[1,2-a][1,2,4]triazolo[5,1-c][1,4]diazepin-12-yl)benzonitrile] |
| 50 to 100 nM | CN(C)[C@@H]1CN(c2ccc3c(c2)Cn2cc(-c4ccc(C#N)cc4)cc2-c2nncn2-3)C[C@@H]1O [Compound 83, 4-(7-((3R,4S)-3-(dimethylamino)-4-hydroxypyrrolidin-1-yl)-9H-benzo[e]pyrrolo[1,2-a] [1,2,4]triazolo[3,4-c][1,4]diazepin-12-yl)benzonitrile] |
| < 50 nM | CN1CC2(CCN(c3ccc4c(c3)Cn3cc(-c5ccc(C#N)cc5)cc3-c3nnnn3-4)C2)C1 [Compound 240, 4-(7-(2-methyl-2,6-diazaspiro[3.4]octan-6-yl)-9H-benzo[e]pyrrolo[1,2-a]tetrazolo[5,1-c] [1,4]diazepin-12-yl)benzonitrile] |
| < 50 nM | CN1CC2(CCN(c3ccc4c(c3)Cn3cc(-c5ccc(C#N)cc5)cc3-c3ncnn3-4)C2)C1 [Compound 253, 4-(7-(2-methyl-2,6-diazaspiro[3.4]octan-6-yl)-9H-benzo[e]pyrrolo[1,2-a][1,2,4]triazolo[5,1-c][1,4]diazepin-12-yl)benzonitrile] |
| 100 to 200 nM | C[C@@H](CO)N(C)C1CCN(c2ccc3c(c2)Cn2cc(-c4ccc(C#N)cc4)cc2-c2nncn2-3)CC1 [Compound 104, (S)-4-(7-(4-((1-hydroxypropan-2-yl)(methyl)amino)piperidin-1-yl)-9H-benzo[e]pyrrolo[1,2-a][1,2,4]triazolo[3,4-c][1,4]diazepin-12-yl)benzonitrile] |
| 100 to 200 nM | CN(C)[C@H]1CN(c2ccc3c(n2)Cn2cc(-c4ccc(F)cc4)cc2-c2nccn2-3)C[C@H]1O [Compound 432, (3R,4S)-4-(dimethylamino)-1-(12-(4-fluorophenyl)-9H-imidazo[2,1-c]pyrido[3,2-e]pyrrolo[1,2-a][1,4]diazepin-7-yl)pyrrolidin-3-ol] |
| < 50 nM | CN(C)C[C@H]1CN(c2ccc3c(c2)Cn2cc(-c4ccc(C#N)cc4)cc2-c2nncn2-3)C[C@H]1O [Compound 81, 4-(7-((3S,4S)-3-((dimethylamino)methyl)-4-hydroxypyrrolidin-1-yl)-9H-benzo[e]pyrrolo[1,2-a][1,2,4]triazolo[3,4-c][1,4]diazepin-12-yl)benzonitrile] |
| 50 to 100 nM | CN(C)[C@H]1CCN(c2ccc3c(c2)Cn2cc(-c4ccc(F)cc4)cc2-c2ncnn2-3)C1 [Compound 427, (S)-1-(12-(4-fluorophenyl)-9H-benzo[e]pyrrolo[1,2-a][1,2,4]triazolo[5,1-c][1,4]diazepin-7-yl)-N,N-dimethylpyrrolidin-3-amine] |
| 50 to 100 nM | CN(C)C[C@@H]1CCN(c2ccc3c(c2)Cn2c(cc(-c4ccc(C#N)cc4)c2Cl)-c2nncn2-3)C1 [Compound 170, (S)-4-(11-chloro-7-(3-((dimethylamino)methyl)pyrrolidin-1-yl)-9H-benzo[e]pyrrolo[1,2-a] [1,2,4]triazolo[3,4-c][1,4]diazepin-12-yl)benzonitrile] |
| 100 to 200 nM | CN[C@@H]1CCN(c2ccc3c(c2)Cn2cc(-c4ccc(F)cc4)cc2-c2ncnn2-3)C1 [Compound 409, (R)-1-(12-(4-fluorophenyl)-9H-benzo[e]pyrrolo[1,2-a][1,2,4]triazolo[5,1-c][1,4]diazepin-7-yl)-N-methylpyrrolidin-3-amine] |
| 50 to 100 nM | CN(C)C[C@@H]1CCN(c2ccc3c(c2)Cn2cc(-c4ccc(C#N)cc4)cc2-c2ncnn2-3)C1 [Compound 254, (S)-4-(7-(3-((dimethylamino)methyl)pyrrolidin-1-yl)-9H-benzo[e]pyrrolo[1,2-a][1,2,4]triazolo[5,1-c][1,4]diazepin-12-yl)benzonitrile] |
| < 50 nM | CNCC1CCN(c2ccc3c(c2)Cn2cc(-c4ccc(F)cc4)cc2-c2nccn2-3)C1 (stereo not shown) [Compound 342, 1-(1-(12-(4-fluorophenyl)-9H-benzo[e]imidazo[2,1-c]pyrrolo[1,2-a][1,4]diazepin-7-yl)pyrrolidin-3-yl)-N-methylmethanamine] |
| < 50 nM | CNC[C@@H]1CN(c2ccc3c(c2)Cn2cc(-c4ccc(F)cc4)cc2-c2nccn2-3)C[C@@H]1O [Compound 483, (3R,4R)-1-(12-(4-fluorophenyl)-9H-benzo[e]imidazo[2,1-c]pyrrolo[1,2-a][1,4]diazepin-7-yl)-4-((methylamino)methyl)pyrrolidin-3-ol] |
| < 50 nM | CN(C)[C@@H]1CCN(c2ccc3c(c2)Cn2cc(-c4ccc(F)cc4)cc2-c2nnnn2-3)C1 [Compound 406, (R)-1-(12-(4-fluorophenyl)-9H-benzo[e]pyrrolo[1,2-a]tetrazolo[5,1-c][1,4]diazepin-7-yl)-N,N-dimethylpyrrolidin-3-amine] |
| < 50 nM | C[C@H](CO)N1CC2(CCN(c3ccc4c(c3)Cn3cc(-c5ccc(F)cc5)cc3-c3nccn3-4)C2)C1 [Compound 370, (R)-2-(6-(12-(4-fluorophenyl)-9H-benzo[e]imidazo[2,1-c]pyrrolo[1,2-a][1,4]diazepin-7-yl)-2,6-diazaspiro[3.4]octan-2-yl)propan-1-ol] |
| 100 to 200 nM | CN(C)C[C@@H]1CCN(c2cc3c(cn2)-n2cnnc2-c2cc(-c4ccc(F)cc4)cn2C3)C1 [Compound 443, (S)-1-(1-(12-(4-fluorophenyl)-9H-pyrido[3,4-e]pyrrolo[1,2-a][1,2,4]triazolo[3,4-c][1,4]diazepin-7-yl)pyrrolidin-3-yl)-N,N-dimethylmethanamine] |
